Where two headings read alike, the source gives them in different places.
Assays:
Assay type in all cases: in vivo
Veronica hederifolia = test: Herbicidal action (outdoor trials), post-emergence, Veronica hederifolia; conditions: visual score approx. 4-6 weeks after application, mean of 4 plots
Experimental: (§1) Herbicidal Action (Outdoor Trials)
(§2) The seeds or rhizome pieces of typical harmful plants were planted and grown under natural outdoor conditions. After the harmful plants had emerged, they were treated, as a rule at the 2- to 4-leaf stage, with various dosages of the compositions according to the invention at a water application rate of 100 to 400 I/ha (converted).
(§3) After the treatment (approx. 4-6 weeks after application), the herbidical activity of the active compounds or active compound mixtures was scored visually by comparing the treated plots with the untreated control plots. Damage and development of all above-ground parts of the plants was recorded. Scoring was done on a percentage scale (100% action=all plants dead; 50% action=50% of the plants and green plant parts dead; 0% action=no discernible action=like control plot). The score figures of in each case 4 plots were averaged.
(§4) The results are listed in the tables below, where the activity measured for the independent use of the active compounds (A) and (B) is stated in brackets and where g of AS/ha denotes grams of active substance per hectare.

Wheat = system: Wheat
Experimental: as §1, §2, §3, §4

Setaria viridis = test: Herbicidal action (outdoor trials), post-emergence, Setaria viridis; conditions: read-out: Setaria viridis % activity
Experimental: as §1, §2, §3, §4

COc1ncc(F)c2nc(S(=O)(=O)Nc3c(F)cccc3F)nn12 [florasulam (B3), 2′,6′,8′-trifluoro-5-methoxy[1,2,4]triazolo[1,5-c]pyrimidine-2-sulfanilide]
Veronica hederifolia % damage (Veronica hederifolia; 4 g of AS/ha): 60% | Wheat % activity (Wheat; 4 g of AS/ha, outdoor, visual score approx. 4-6 weeks after application, mean of 4 plots): 0%

CCOC(=O)/C(Cl)=C/c1cc(N2C(=O)C3=C(CCCC3)C2=O)ccc1Cl [cinidon-ethyl (B7), ethyl (Z)-2-chloro-3-[2-chloro-5-(1,2-cyclohex-1-enedicarboximido)phenyl]acrylate]
Veronica hederifolia % damage (Veronica hederifolia; 25 g of AS/ha): 35% | Veronica hederifolia % activity (Veronica hederifolia; 50 g of AS/ha): 25% | Wheat % activity (Wheat; 25 g of AS/ha, outdoor, visual score approx. 4-6 weeks after application, mean of 4 plots): 0% | Wheat % damage (Wheat; 50 g of AS/ha, outdoor, visual score approx. 4-6 weeks after application, mean of 4 plots): 5%

COc1nn(C(=O)NS(=O)(=O)c2ccccc2OC(F)(F)F)c(=O)n1C.[Na] [flucarbazone (B1), 4,5-dihydro-3-methoxy-4-methyl-5-oxo-N-(2-trifluoromethoxyphenylsulfonyl)-1H-1,2,4-triazole-1-carboxamide sodium salt]
inhibition at 10 g/ha (Setaria viridis): 40% | Wheat % damage (Wheat; 10 g of AS/ha, outdoor, visual score approx. 4-6 weeks after application, mean of 4 plots): 5%

O=C(Nc1ccc(F)cc1)c1cccc(Oc2cccc(C(F)(F)F)c2)n1 [picolinafen (B6), 4′-fluoro-6-[(α,α,α-trifluoro-m-tolyl)oxy]picolinanilide]
Veronica hederifolia % damage (Veronica hederifolia; 5 g of AS/ha): 55% | inhibition at 30 g/ha (Veronica hederifolia; Veronica hederifolia, 30 g of AS/ha): 65% | Wheat % activity (Wheat; in vivo): 0% | Wheat % damage (Wheat; in vivo): 0%

Reference: patent US8158558B2, “Herbicide combinations comprising specific sulfonylureas” (Bayer CropScience GmbH, priority 2001, dated 2012)
